Test results reported in patent US9200269B2, “β-glucuronidase inhibitor” (priority 2007, dated 2015).

Assays:
[1] = tested on: β-glucuronidase activity derived from microbial cells grown in the putrefied urine; experiment: Inhibition of β-glucuronidase activity derived from urine putrefying microbial cell (putrefied urine supernatant, PNPG); format: biochemical; settings: 0.01 wt % in reaction solution; room temperature, 24 hours
Protocol: A putrefied urine product, which was prepared by collecting 20 mL of a urine sample, dispensing the sample in a bottle which had been preliminarily subjected to γ-ray sterilization without performing any microbe removing operation and storing the resultant at room temperature for 7 days, was used. 1 mL of the putrefied urine was centrifuged at 10,000 rpm for 5 minutes, and separated into a microbial cell and a supernatant. The precipitated microbial cell was suspended in 0.5 mL of saline. The supernatant was subjected to sterilizing through a 0.2-μm filter.
250 μL of a 2 mM PNPG aqueous solution, 100 μL of a 0.5 M phosphate buffer (pH 6.8), […] of a 10 wt % 8-cyclohexadecen-1-one DPG solution and 100 μL of ion exchanged water were mixed in a bottle γ-ray sterilized in advance, and subsequently 50 μL of the putrefied urine supernatant sample in Reference Example 3 were added. The mixture was allowed to react at room temperature. […]
The above-mentioned reaction solution immediately after the start of the reaction and after 24 hours of reaction was diluted with a 0.2 M glycine buffer (pH 10.4) and measured for its absorbance at a wavelength of 400 nm. A value obtained by subtracting the absorbance immediately after the start from the absorbance after 24 hours of reaction was used as an index of a β-glucuronidase activity.

[2] = target: T1, β-glucuronidase Type VII-A derived from Escherichia coli (Escherichia coli, UniProt P05804); experiment: Inhibition of β-glucuronidase activity (PNPG substrate, absorbance at 400 nm); format: biochemical; settings: 1.6 units/mL enzyme, 37° C., 2 hours, pH 6.8
T1 construct: purchased Sigma-Aldrich Corporation
T1 sequence (P05804 whole entry): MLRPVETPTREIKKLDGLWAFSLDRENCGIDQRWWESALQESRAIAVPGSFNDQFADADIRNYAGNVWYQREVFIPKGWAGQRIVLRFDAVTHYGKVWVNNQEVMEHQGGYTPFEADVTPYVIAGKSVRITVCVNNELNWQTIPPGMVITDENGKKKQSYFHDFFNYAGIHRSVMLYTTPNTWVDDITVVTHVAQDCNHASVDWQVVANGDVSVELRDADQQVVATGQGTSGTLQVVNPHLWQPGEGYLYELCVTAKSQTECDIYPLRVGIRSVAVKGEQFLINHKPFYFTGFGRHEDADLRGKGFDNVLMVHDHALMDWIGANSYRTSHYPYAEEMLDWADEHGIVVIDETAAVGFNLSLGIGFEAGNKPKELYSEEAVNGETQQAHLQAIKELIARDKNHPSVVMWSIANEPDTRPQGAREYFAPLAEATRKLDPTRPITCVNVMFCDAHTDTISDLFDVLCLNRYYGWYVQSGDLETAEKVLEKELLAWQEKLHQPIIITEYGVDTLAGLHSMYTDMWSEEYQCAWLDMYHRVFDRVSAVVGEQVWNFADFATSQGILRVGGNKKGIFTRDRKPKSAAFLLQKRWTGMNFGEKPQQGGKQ
Protocol: 100 μL of a 2 mM PNPG aqueous solution, 40 μL of a 0.5 M phosphate buffer (pH 6.8), 38 μL of ion exchanged water and 2 μL of a 10 or 1 wt % dipropylene glycol (DPG) solution of various compounds or plant extracts were mixed in a bottle γ-ray sterilized in advance, and subsequently 20 μL of a β-glucuronidase aqueous solution adjusted to 16 units/mL was added, in order to allow the enzyme to react in a thermostat bath at 37° C. for 2 hours. Further, in the case of some of compounds, in addition to the above steps, the same experiment was performed using a 0.1 wt % DPG solution as well. As a result, the concentrations of the test compounds and plant extracts in the reaction solution were adjusted to 0.1, 0.01 and 0.001 wt %, respectively. Further, a product prepared by adding DPG in place of the above-mentioned compounds and plant extracts was used as a control, and a product prepared by adding ion exchanged water in place of an enzyme solution was used as a blank for each sample and control, and the respective products were allowed to react for 2 hours in the same manner. It should be noted that the plant extract sample was used as a solvent extract.
The above-mentioned reaction solution was diluted with a 0.2 M glycine buffer (pH 10.4) and measured for its absorbance at a wavelength of 400 nm. The relative activity inhibition rate of a β-glucuronidase was determined by using the obtained measurement value in accordance with the following equation. Absorbance change of control=Absorbance of control−Absorbance of blank for each control Absorbance change of sample=Absorbance of sample−Absorbance of blank for each sample Activity inhibition rate (%)=[(Absorbance change of control−Absorbance change of sample)/Absorbance change of control]×100

Compound: O=C1CCCCCCC=CCCCCCCC1 [8-Cyclohexadecen-1-one, 8-cyclohexadecen-1-one]
- β-glucuronidase activity of putrefied urine supernatant (result in words, FIG. 4) [1]: suppressed the β-glucuronidase activity
- Inhibition rate (%) Concentration 0.001% ([2]; 0.001 wt % in reaction solution): 95.8%
- inhibition at 0.01 wt % ([2]; 0.01 wt % in reaction solution, read-out: Inhibition rate (%) Concentration 0.01%): 99.9%
- inhibition at 0.1 wt % ([2]; 0.1 wt % in reaction solution, read-out: Inhibition rate (%) Concentration 0.1%): 100%
